Measured values as given in patent publication US12539292B2, “BRM targeting compounds and associated methods of use” (Arvinas Operations, Inc., priority 2018, dated 2026).
Where two headings read alike, the source gives them in different places.

Target: T1, BRM (Homo sapiens, UniProt P51531)
T1 construct: In-Cell Western Screen of BRM Degradation in SW1573 Cells; endogenous in cells; host or cells: SW1573
Experiment: In-cell Western screen of BRM degradation in SW1573 cells (Dmax and DC50)
Assay type: cell-based
Settings: BRM degradation
Method: In-Cell Western Screen of BRM Degradation in SW1573 Cells
To assess BRM degradation (Dmax and DC50), cells were seeded at 8000/well in 96-well black/clear-bottom plates in 180 μL DMEM growth media (containing 1% pen-strep, 1% HEPES and 10% FBS) per well. Plates were incubated overnight to allow adhesion. The next morning cells were treated by adding 20 μL of 10× compound (1% DMSO) to appropriate wells and returned to incubator for overnight (18-20 hours). The final DMSO concentration was 0.1%.
For processing, the plates were removed from incubator, the media was removed, and immediately 200 μL of cold (4° C.) DPBS was added to all wells. DPBS was then removed, and 50 μL of 4% paraformaldehyde (PFA) in DPBS (4° C.) was added to all wells, and the plates were incubated at room temperature for 20 minutes. PFA was then removed, and 200 μL of TBS-T containing 0.5% Triton X-100 was added to all wells, and the plates were incubated at room temperature for 30 minutes. TBS-T containing 0.5% Triton X-100 was then removed, and 50 μL of Li-Cor blocking solution was added, and the plates were incubated at room temperature for a minimum of one hour.
The next day plates were washed three times with TBS-T, 200 μL per well. Fifty (50) μL of secondary antibody cocktail in LI-COR blocking solution (anti-rabbit_800 nm and anti-mouse_680 nm) was added to all wells (diluted 1:5000). The plates were incubated at room temperature for at least one hour while protected from light. The plates were washed twice with TBS-T, 200 μL per well.
To read each plate TBS-T was removed, and each plate was inverted tapped on a paper towel. The plates were read on the LI-COR Odyssey with default intensity settings of 5.0 for both channels. LI-COR images were analyzed with the in-cell Western feature of Image Studio Lite.

[1] = SW1573 cells, tested at the top concentration of between 0.3 and 10 μM, read-out: Dmax (%) (% degraded)

T1 sequence (P51531 whole entry): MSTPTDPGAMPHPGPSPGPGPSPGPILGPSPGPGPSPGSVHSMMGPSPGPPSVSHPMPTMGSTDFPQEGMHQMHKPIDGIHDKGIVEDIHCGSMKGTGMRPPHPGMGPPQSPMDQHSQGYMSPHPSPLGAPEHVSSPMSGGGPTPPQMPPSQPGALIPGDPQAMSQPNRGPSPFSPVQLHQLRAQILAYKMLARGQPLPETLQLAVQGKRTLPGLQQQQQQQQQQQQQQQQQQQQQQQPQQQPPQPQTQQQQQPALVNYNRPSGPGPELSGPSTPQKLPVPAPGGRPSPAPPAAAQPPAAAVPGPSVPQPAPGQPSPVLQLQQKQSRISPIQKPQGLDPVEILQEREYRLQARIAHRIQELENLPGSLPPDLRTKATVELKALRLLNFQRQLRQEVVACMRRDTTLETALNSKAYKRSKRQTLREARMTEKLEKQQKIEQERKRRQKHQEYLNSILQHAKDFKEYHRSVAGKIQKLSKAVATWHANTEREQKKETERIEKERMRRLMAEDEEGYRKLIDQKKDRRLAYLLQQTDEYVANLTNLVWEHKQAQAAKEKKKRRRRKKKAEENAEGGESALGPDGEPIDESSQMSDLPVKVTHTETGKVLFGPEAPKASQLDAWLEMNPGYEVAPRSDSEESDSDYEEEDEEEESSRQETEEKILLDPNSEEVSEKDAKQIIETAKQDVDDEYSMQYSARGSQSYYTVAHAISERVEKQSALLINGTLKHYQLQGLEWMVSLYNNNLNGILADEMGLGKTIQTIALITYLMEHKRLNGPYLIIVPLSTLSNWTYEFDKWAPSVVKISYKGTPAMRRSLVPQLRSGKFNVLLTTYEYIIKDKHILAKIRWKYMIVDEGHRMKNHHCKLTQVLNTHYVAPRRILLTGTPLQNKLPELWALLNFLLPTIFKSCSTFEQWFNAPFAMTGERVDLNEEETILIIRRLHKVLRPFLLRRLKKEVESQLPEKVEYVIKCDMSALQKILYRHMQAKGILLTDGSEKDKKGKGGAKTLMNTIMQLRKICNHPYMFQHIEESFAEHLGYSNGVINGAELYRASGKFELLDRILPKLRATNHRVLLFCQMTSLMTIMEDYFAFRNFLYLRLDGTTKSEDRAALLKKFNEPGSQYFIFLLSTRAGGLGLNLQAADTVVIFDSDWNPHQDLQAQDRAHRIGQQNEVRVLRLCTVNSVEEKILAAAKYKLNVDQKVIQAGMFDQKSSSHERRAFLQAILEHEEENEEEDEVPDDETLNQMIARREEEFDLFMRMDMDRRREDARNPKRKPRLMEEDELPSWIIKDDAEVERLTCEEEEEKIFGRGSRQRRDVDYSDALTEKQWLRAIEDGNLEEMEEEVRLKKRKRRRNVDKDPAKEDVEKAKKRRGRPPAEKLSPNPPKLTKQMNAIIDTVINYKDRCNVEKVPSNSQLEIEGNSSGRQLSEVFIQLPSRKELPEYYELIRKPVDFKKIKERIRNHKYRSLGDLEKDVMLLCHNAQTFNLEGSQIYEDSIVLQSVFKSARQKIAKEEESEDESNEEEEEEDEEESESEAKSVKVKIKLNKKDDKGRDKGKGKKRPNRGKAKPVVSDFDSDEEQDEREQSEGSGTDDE

SMILES | DC50 (SW1573 cells, read-out: DC50) | Dmax (SW1573 cells, read-out: Dmax (% degraded)) | Dmax [1] | DC50 (read-out: BRM DC50)
CC[C@@H](NC(=O)[C@@H]1C[C@@H](O)CN1C(=O)[C@@H](c1cc(N2CCC(CN3CCC(O[C@H]4C[C@H](Oc5cc(N6C7CCC6CN(c6cc(-c8ccccc8O)nnc6N)C7)ccn5)C4)CC3)CC2)no1)C(C)C)c1ccc(-c2scnc2C)cc1 [compound 663, (2S,4R)-1-((2R)-2-(3-(4-((4-((1r,3r)-3-((4-(3-(3-amino-6-(2-hydroxyphenyl)pyridazin-4-yl)-3,8-diazabicyclo[3.2.1]octan-8-yl)pyridin-2-yl)oxy)cyclobutoxy)piperidin-1-yl)methyl)piperidin-1-yl)isoxazol-5-yl)-3-methylbutanoyl)-4-hydroxy-N-((R)-1-(4-(4-methylthiazol-5-yl)phenyl)propyl)pyrrolidine-2-carboxamide] | 2.5 to 10 nM | 50 to 75% | – | –
Cc1ncsc1-c1ccc([C@@H](NC(=O)[C@@H]2C[C@@H](O)CN2C(=O)[C@@H](c2cc(OCCN3CCC(O[C@H]4C[C@H](Oc5cc(N6C7CCC6CN(c6cc(-c8ccccc8O)nnc6N)C7)ccn5)C4)CC3)no2)C(C)C)C(F)F)cn1 [compound 244, (2S,4R)-1-((2R)-2-(3-(2-(4-((1r,3R)-3-((4-(3-(3-amino-6-(2-hydroxyphenyl)pyridazin-4-yl)-3,8-diazabicyclo[3.2.1]octan-8-yl)pyridin-2-yl)oxy)cyclobutoxy)piperidin-1-yl)ethoxy)isoxazol-5-yl)-3-methylbutanoyl)-N-((R)-2,2-difluoro-1-(6-(4-methylthiazol-5-yl)pyridin-3-yl)ethyl)-4-hydroxypyrrolidine-2-carboxamide] | < 2.5 nM | – | > 75% | –
Cc1ncsc1-c1ccc([C@H](C)NC(=O)[C@@H]2C[C@@H](O)CN2C(=O)[C@@H](c2cc(OCCOCCOCCOCCn3cc(-c4cc(-c5ccccc5O)nnc4N)cn3)no2)C(C)C)cc1 [compound 182, (2S,4R)-1-((R)-2-(3-(2-(2-(2-(2-(4-(3-amino-6-(2-hydroxyphenyl)pyridazin-4-yl)-1H-pyrazol-1-yl)ethoxy)ethoxy)ethoxy)ethoxy)isoxazol-5-yl)-3-methylbutanoyl)-4-hydroxy-N-((S)-1-(4-(4-methylthiazol-5-yl)phenyl)ethyl)pyrrolidine-2-carboxamide] | 2.5 to 10 nM | – | > 75% | –
Cc1cc([C@H](C(=O)N2C[C@H](O)C[C@H]2C(=O)N[C@H](COCCCCCc2cc(-c3ccccc3O)nnc2N)c2ccc(-c3scnc3C)cc2)C(C)C)on1 [compound 528, (2S,4R)-N-((S)-2-((5-(3-amino-6-(2-hydroxyphenyl)pyridazin-4-yl)pentyl)oxy)-1-(4-(4-methylthiazol-5-yl)phenyl)ethyl)-4-hydroxy-1-((R)-3-methyl-2-(3-methylisoxazol-5-yl)butanoyl)pyrrolidine-2-carboxamide] | – | – | – | > 30 nM
Cc1ncsc1-c1ccc([C@@H](NC(=O)[C@@H]2C[C@@H](O)CN2C(=O)[C@@H](c2cc(OCCN3CCC(O[C@H]4C[C@H](Oc5cc(N6C7CCC6CN(c6cc(-c8ccccc8O)nnc6N)C7)ccn5)C4)CC3)no2)C(C)C)C(F)F)cc1 [compound 268, (2S,4R)-1-((2R)-2-(3-(2-(4-((1r,3R)-3-((4-(3-(3-amino-6-(2-hydroxyphenyl)pyridazin-4-yl)-3,8-diazabicyclo[3.2.1]octan-8-yl)pyridin-2-yl)oxy)cyclobutoxy)piperidin-1-yl)ethoxy)isoxazol-5-yl)-3-methylbutanoyl)-N-((R)-2,2-difluoro-1-(4-(4-methylthiazol-5-yl)phenyl)ethyl)-4-hydroxypyrrolidine-2-carboxamide] | < 2.5 nM | – | > 75% | –
